Results from patent US20240343740A1, “MACROCYCLIC GLUCAGON-LIKE PEPTIDE 1 RECEPTOR AGONISTS” (Eli Lilly and Company, priority 2021, published 2024).
Counter-ions that a name gives are not always drawn.

Experiments:
human GLP-1R [1] = biological target: T1, human GLP-1R (Homo sapiens, UniProt P43220); test: Human GLP-1 Receptor HEK293 cell cAMP assay, 581 fmol/mg GLP-1R expression density; format: cell-based; design: expressed in transfected cells; host or cells: HEK293 clonal cell line; details: HEK293 cell line with 581 fmol/mg expression density of GLP-1R; for EC50: geometric mean, read-out: EC50 nM (SEM, n), intracellular cAMP response, relative EC50; for Emax: percent of maximal response to GLP-1(7-36)NH2, arithmetic mean, read-out: Emax % (SEM, n), intracellular cAMP response
T1 sequence (P43220 24-463): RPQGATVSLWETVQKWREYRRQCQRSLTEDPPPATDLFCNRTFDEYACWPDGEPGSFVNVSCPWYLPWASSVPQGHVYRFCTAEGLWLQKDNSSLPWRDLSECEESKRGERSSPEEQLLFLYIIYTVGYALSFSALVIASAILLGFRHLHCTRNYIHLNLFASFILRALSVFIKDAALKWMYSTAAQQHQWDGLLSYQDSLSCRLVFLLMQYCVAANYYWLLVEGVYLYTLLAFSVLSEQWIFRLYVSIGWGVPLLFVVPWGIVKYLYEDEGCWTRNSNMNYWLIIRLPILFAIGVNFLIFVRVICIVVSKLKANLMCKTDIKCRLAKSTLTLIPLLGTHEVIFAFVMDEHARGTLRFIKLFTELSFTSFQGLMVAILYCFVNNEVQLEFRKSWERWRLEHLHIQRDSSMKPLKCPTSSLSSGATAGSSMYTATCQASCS
How it was run: (§1)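 HEK293 clonal lines expressing human GLP-1R, 20-point compound curves, 30 min at 37° C in DMEM with 0.1% casein, 250 μM IBMX, 0.5% DMSO. cAMP by HTRF, converted via standard curve to % of maximal human GLP-1(7-36)NH2 response; relative EC50 and Emax from four-parameter logistic fit.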

human GLP-1R [2] = biological target: T1, human GLP-1R; test: Human GLP-1 Receptor HEK293 cell cAMP assay, 104 fmol/mg GLP-1R expression density; format: cell-based; design: expressed in transfected cells; host or cells: HEK293 clonal cell line; details: HEK293 cell line with 104 fmol/mg expression density of GLP-1R; for EC50: geometric mean, read-out: EC50 nM (SEM, n), intracellular cAMP response, relative EC50; for Emax: percent of maximal response to GLP-1(7-36)NH2, arithmetic mean, read-out: Emax % (SEM, n), intracellular cAMP response
How it was run: as §1

Row | Structure (SMILES) | EC50 (human GLP-1R [1]) | Emax (human GLP-1R [1]) | EC50 (human GLP-1R [2]) | Emax (human GLP-1R [2])
1 | COc1cc(C(=O)O)cc2c1nc(Cc1cc(F)c3cc1OCCCc1cc(C#N)cnc1COc1cccc-3n1)n2C[C@@H]1CCO1 [Example 43, (S)-2-((5^5-Cyano-1^6-fluoro-3,9-dioxa-2(2,6),5(2,3)-dipyridina-1(1,3)-benzenacyclononaphane-1^4-yl)methyl)-4-methoxy-1-(oxetan-2-ylmethyl)-1H-benzo[d]imidazole-6-carboxylic acid diformate salt] | 48.6 nM | 86.9% | 194 nM | 72%
2 | COCCOc1cc(C(=O)O)cc2c1nc(Cc1cc(F)c3cc1CCOCc1cc(ccc1Cl)COc1cccc-3n1)n2C[C@@H]1CCO1 [Example 47, (S)-2-((5^4-Chloro-1^6-fluoro-3,7-dioxa-2(2,6)-pyridina-1,5(1,3)-dibenzenacyclononaphane-1^4-yl)methyl)-4-(2-methoxyethoxy)-1-(oxetan-2-ylmethyl)-1H-benzo[d]imidazole-6-carboxylic acid] | 25.1 nM | 110% | 116 nM | 108%
3 | COCCOc1cc(C(=O)O)cc2c1nc(Cc1cc(F)c3cc1CCOCc1cc(ccc1C#N)COc1cccc-3n1)n2C[C@@H]1CCO1 [Example 48, (S)-2-((5^4-Cyano-1^6-fluoro-3,7-dioxa-2(2,6)-pyridina-1,5(1,3)-dibenzenacyclononaphane-1^4-yl)methyl)-4-(2-methoxyethoxy)-1-(oxetan-2-ylmethyl)-1H-benzo[d]imidazole-6-carboxylic acid] | 11.2 nM | 108% | 31.5 nM | 86.8%
4 | COCCOc1cc(C(=O)O)cc2c1nc(Cc1ccc3cc1COCC(F)(F)c1cc(C#N)ccc1COc1cccc-3n1)n2C[C@@H]1CCO1 [Example 50, (S)-2-((5^4-cyano-6,6-difluoro-3.8-dioxa-2(2,6)-pyridina-1(1,3),5(1,2)-dibenzenacyclonaphane-1^4-yl)methyl)-4-(2-methoxyethoxy)-1-(oxatan-2-ylmethyl)-1H-benzo[d]imidazole-6-carboxylic acid] | 38.1 nM | 115% | 128 nM | 82.8%
5 | COc1cc(C(=O)O)cc2c1nc(Cc1ccc3cc1COCCc1cc(C#N)ccc1COc1ccnc-3n1)n2C[C@@H]1CCO1 [Example 51, (S)-2-((5^4-Cyano-3,8-dioxa-2(2,4)-pyrimidina-1(1,3),5(1,2)-dibenzenacyclononaphane-1^4-yl)methyl)-4-methoxy-1-(oxetan-2-ylmethyl)-1H-benzo[d]imidazole-6-carboxylic acid] | 41 nM | 96.7% | 152 nM | 77.1%
6 | COCCOc1cc(C(=O)O)cc2c1nc(Cc1ccc3cc1COCCc1cc(C(F)(F)F)ncc1COc1cccc-3n1)n2C[C@@H]1CCO1 [Example 52, (S)-4-(2-Methoxyethoxy)-1-(oxetan-2-ylmethyl)-2-((5^6-(trifluoromethyl)-3,8-dioxa-2(2,6),5(3,4)-dipyridina-1(1,3)-benzenacyclononaphane-1^4-yl)methyl)-1H-benzo[d]imidazole-6-carboxylic acid] | 58.4 nM | 108% | 153 nM | 84.3%
7 | Cc1nc(CCOc2cc(C(=O)O)cc3c2nc(Cc2ccc4cc2OCCCc2cc(C#N)ccc2COc2cccc-4n2)n3C[C@@H]2CCO2)co1 [Example 53, (S)-2-((5^4-Cyano-3,9-dioxa-2(2,6)-pyridina-1(1,3),5(1,2)-dibenzenacyclononaphane-1^4-yl)methyl)-4-(2-(2-methyloxazol-4-yl)ethoxy)-1-(oxetan-2-ylmethyl)-1H-benzo[d]imidazole-6-carboxylic acid] | 77.8 nM | 104% | 293 nM | 58%
8 | N#Cc1ccc2c(c1)CCCOc1cc(ccc1Cc1nc3c(OCCNCC(F)(F)F)cc(C(=O)O)cc3n1C[C@@H]1CCO1)-c1cccc(n1)OC2 [Example 54, (S)-2-((5^4-Cyano-3,9-dioxa-2(2,6)-pyridina-1(1,3),5(1,2)-dibenzenacyclononaphane-1^4-yl)methyl)-1-(oxetan-2-ylmethyl)-4-(2-((2,2,2-trifluoroethyl)amino)ethoxy)-1H-benzo[d]imidazole-6-carboxylic acid] | 440 nM | 49.5% | 654 nM | 18.3%
9 | CN(C)CCOc1cc(C(=O)O)cc2c1nc(Cc1ccc3cc1COCCc1cc(Cl)ccc1COc1cccc-3n1)n2C[C@@H]1CCO1 [Example 56, (S)-2-((5^4-Chloro-3,8-dioxa-2(2,6)-pyridina-1(1,3),5(1,2)-dibenzenacyclononaphane-1^4-yl)methyl)-4-(2-(dimethylamino)ethoxy)-1-(oxetan-2-ylmethyl)-1H-benzo[d]imidazole-6-carboxylic acid] | 55.8 nM | 85% | 131 nM | 41.7%

The next compounds have a lower EC50 (human GLP-1R [1]) than those just listed; values first:

Row | EC50 (human GLP-1R [1]) | Emax (human GLP-1R [1]) | EC50 (human GLP-1R [2]) | Emax (human GLP-1R [2]) | Structure (SMILES)
10 | 4.14 nM | 112% | 16.4 nM | 85.5% | COc1cc(C(=O)O)cc2c1nc(Cc1cc(F)c3cc1CCOCc1cc(C#N)ccc1COc1cccc-3n1)n2C[C@@H]1CCO1 [Example 44, (S)-2-((5^4-Cyano-1^6-fluoro-3,7-dioxa-2(2,6)-pyridina-1(1,3),5(1,2)-dibenzenacyclononaphane-1^4-yl)methyl)-4-methoxy-1-(oxetan-2-ylmethyl)-1H-benzo[d]imidazole-6-carboxylic acid]
11 | 2.4 nM | 122% | 7.57 nM | 87.9% | COCCOc1cc(C(=O)O)cc2c1nc(Cc1cc(F)c3cc1COCCc1cc(Cl)cc(F)c1COc1cccc-3n1)n2C[C@@H]1CCO1 [Example 45, (S)-2-((5^4-Chloro-1^6,5^6-difluoro-3,8-dioxa-2(2,6)-pyridina-1(1,3),5(1,2)-dibenzenacyclononaphane-1^4-yl)methyl)-4-(2-methoxyethoxy)-1-(oxetan-2-ylmethyl)-1H-benzo[d]imidazole-6-carboxylic acid]
12 | 7.23 nM | 107% | 24.6 nM | 91.7% | COCCOc1cc(C(=O)O)cc2c1nc(Cc1ccc3cc1COCCc1nc(ccc1C#N)COc1cccc-3n1)n2C[C@@H]1CCO1 [Example 46, (S)-2-((5^5-Cyano-3,8-dioxa-2,5(2,6)-dipyridina-1(1,3)-benzenacyclononaphane-1^4-yl)methyl)-4-(2-methoxyethoxy)-1-(oxetan-2-ylmethyl)-1H-benzo[d]imidazole-6-carboxylic acid]
13 | 2.33 nM | 112% | 8.39 nM | 85.5% | COCCOc1cc(C(=O)O)cc2c1nc(Cc1ccc3cc1COCCc1cc(C#N)ccc1COc1ccc(F)c-3n1)n2C[C@@H]1CCO1 [Example 49, (S)-2-((5^4-Cyano-2^3-fluoro-3,8-dioxa-2(2,6)-pyridina-1(1,3),5(1,2)-dibenzenacyclononaphane-1^4-yl)methyl)-4-(2-methoxyethoxy)-1-(oxetan-2-ylmethyl)-1H-benzo[d]imidazole-6-carboxylic acid]
14 | 8.94 nM | 113% | 22.8 nM | 84.8% | O=C(O)c1cc(OCCO)c2nc(Cc3ccc4cc3COCCc3cc(Cl)ccc3COc3cccc-4n3)n(C[C@@H]3CCO3)c2c1 [Example 55, (S)-4-[2-Hydroxyethoxy]-2-((5^4-chloro-3,8-dioxa-2(2,6)-pyridina-1(1,3),5(1,2)-dibenzenacyclononaphane-1^4-yl)methyl)-1-(oxetan-2-ylmethyl)-1H-benzo[d]imidazole-6-carboxylic acid]
